Data reported in US4068070A, “α-Cyanoamine compounds and a process for producing the same” (Fuji Chemical Industry Co., Ltd., priority 1974, dated 1978).

How the values were obtained:
Format in all cases: in vivo, mongrel adult dogs
[1] = tested on: arterial mean blood pressure; assay: Effects on arterial mean blood pressure
Procedure: (§1) All experiments were made on male and female thoractomized mongrel adult dogs weighing about 10 kg. under anesthesia with pentobarbital sodium. Compounds A, D, E and F were suspended in 0.2% CMC solution, Compound B dissolved in hydrochloric acid solution (pH 6), and Compound C and active placebo being dissolved in physiological saline solution. Animals were administered the drug intravenously on brachiuma with either test compound or active placebo.
(§2) Arterial blood pressure was measured by pressure transducer (Nippon Koden MPU-0.5) connected with the cannula inserted from exposed carotid artery into aorta. Aortic blood flow was determined by means of electromagnetic flow meter (Nippon Koden MF-5) mounted at the origin of the aorta. Coronary sinus out flow and coronary sinus oxygen tension were assessed by means of electromagnetic flow meter (Nippon Koden MF-5) and P02 macro electrode (Beokmann Moder 160-C), respectively using Morawitz cannulization technique. Heart rate was measured by cardiotachometer (Nippon Koden RT-2) synchronized with systolic blood pressure of aorta.

aortic blood flow = assay: Effects on aortic blood flow
Procedure: as §1, §2

coronary sinus out flow = assay: Effects on coronary sinus out flow
Procedure: as §1, §2

[2] = tested on: coronary sinus oxygen tension; assay: Effects on coronary sinus oxygen tension
Procedure: as §1, §2

heart rate = assay: Effects on heart rate
Procedure: as §1, §2

## CCOC(=O)N1CCN(C(C#N)c2ccc(OC)c(OC)c2)CC1 (centres unmarked) [Compound A]
[1]; 2.0 mg/kg i.v., 1 min
  Changes (%) of basal values, arterial mean blood pressure: -1.5%
[1]; 2.0 mg/kg i.v., 5 min
  Changes (%) of basal values, arterial mean blood pressure: -2.6%
[1]; 2.0 mg/kg i.v., 10 min
  Changes (%) of basal values, arterial mean blood pressure: -4.2%
[1]; 2.0 mg/kg i.v., 20 min
  Changes (%) of basal values, arterial mean blood pressure: -3.8%
[1]; 2.0 mg/kg i.v., 30 min
  Changes (%) of basal values, arterial mean blood pressure: -4.5%
[1]; 2.0 mg/kg i.v., imm.
  Changes (%) of basal values, arterial mean blood pressure: -4.0%
[1]; 6.0 mg/kg i.v., 1 min
  Changes (%) of basal values, arterial mean blood pressure: -3.4%
[1]; 6.0 mg/kg i.v., 5 min
  Changes (%) of basal values, arterial mean blood pressure: -5.2%
[1]; 6.0 mg/kg i.v., 10 min
  Changes (%) of basal values, arterial mean blood pressure: -6.0%
[1]; 6.0 mg/kg i.v., 20 min
  Changes (%) of basal values, arterial mean blood pressure: -5.2%
[1]; 6.0 mg/kg i.v., 30 min
  Changes (%) of basal values, arterial mean blood pressure: -3.0%
[1]; 6.0 mg/kg i.v., imm.
  Changes (%) of basal values, arterial mean blood pressure: -4.2%
[1]; 20.0 mg/kg i.v., 1 min
  Changes (%) of basal values, arterial mean blood pressure: -16.9%
[1]; 20.0 mg/kg i.v., 5 min
  Changes (%) of basal values, arterial mean blood pressure: -16.9%
[1]; 20.0 mg/kg i.v., 10 min
  Changes (%) of basal values, arterial mean blood pressure: -16.0%
[1]; 20.0 mg/kg i.v., 20 min
  Changes (%) of basal values, arterial mean blood pressure: -17.0%
[1]; 20.0 mg/kg i.v., 30 min
  Changes (%) of basal values, arterial mean blood pressure: -14.9%
[1]; 20.0 mg/kg i.v., imm.
  Changes (%) of basal values, arterial mean blood pressure: -14.5%
[1]; i.v., anesthetized dogs
  Effects on arterial mean blood pressure (in words): hypotensive effects being proportioned to their doses which were of long duration
Aortic blood flow; 2.0 mg/kg i.v., 1 min
  Changes (%) of basal values, aortic blood flow: +4.3%
Aortic blood flow; 2.0 mg/kg i.v., 5 min
  Changes (%) of basal values, aortic blood flow: +3.7%
Aortic blood flow; 2.0 mg/kg i.v., 10 min
  Changes (%) of basal values, aortic blood flow: +2.3%
Aortic blood flow; 2.0 mg/kg i.v., 20 min
  Changes (%) of basal values, aortic blood flow: +1.0%
Aortic blood flow; 2.0 mg/kg i.v., 30 min
  Changes (%) of basal values, aortic blood flow: +1.0%
Aortic blood flow; 2.0 mg/kg i.v., imm.
  Changes (%) of basal values, aortic blood flow: +0.5%
Aortic blood flow; 6.0 mg/kg i.v., 1 min
  Changes (%) of basal values, aortic blood flow: +5.8%
Aortic blood flow; 6.0 mg/kg i.v., 5 min
  Changes (%) of basal values, aortic blood flow: +3.7%
Aortic blood flow; 6.0 mg/kg i.v., 10 min
  Changes (%) of basal values, aortic blood flow: +0.1%
Aortic blood flow; 6.0 mg/kg i.v., 20 min
  Changes (%) of basal values, aortic blood flow: -0.2%
Aortic blood flow; 6.0 mg/kg i.v., 30 min
  Changes (%) of basal values, aortic blood flow: +0.2%
Aortic blood flow; 6.0 mg/kg i.v., imm.
  Changes (%) of basal values, aortic blood flow: +4.3%
Aortic blood flow; 20.0 mg/kg i.v., 1 min
  Changes (%) of basal values, aortic blood flow: +7.3%
Aortic blood flow; 20.0 mg/kg i.v., 5 min
  Changes (%) of basal values, aortic blood flow: +10.2%
Aortic blood flow; 20.0 mg/kg i.v., 10 min
  Changes (%) of basal values, aortic blood flow: +8.0%
Aortic blood flow; 20.0 mg/kg i.v., 20 min
  Changes (%) of basal values, aortic blood flow: +3.3%
Aortic blood flow; 20.0 mg/kg i.v., 30 min
  Changes (%) of basal values, aortic blood flow: +1.0%
Aortic blood flow; 20.0 mg/kg i.v., imm.
  Changes (%) of basal values, aortic blood flow: +6.1%
Aortic blood flow; during the course of observation period, i.v.
  increased aortic blood flow: 2-8%
Coronary sinus out flow; 2.0 mg/kg i.v., 1 min
  Changes(%) of basal values, coronary sinus out flow: +7.6%
Coronary sinus out flow; 2.0 mg/kg i.v., 5 min
  Changes(%) of basal values, coronary sinus out flow: +5.4%
Coronary sinus out flow; 2.0 mg/kg i.v., 10 min
  Changes(%) of basal values, coronary sinus out flow: +4.7%
Coronary sinus out flow; 2.0 mg/kg i.v., 20 min
  Changes(%) of basal values, coronary sinus out flow: +4.0%
Coronary sinus out flow; 2.0 mg/kg i.v., 30 min
  Changes(%) of basal values, coronary sinus out flow: +3.5%
Coronary sinus out flow; 2.0 mg/kg i.v., imm.
  Changes(%) of basal values, coronary sinus out flow: +10.9%
Coronary sinus out flow; 6.0 mg/kg i.v., 1 min
  Changes(%) of basal values, coronary sinus out flow: +16.6%
Coronary sinus out flow; 6.0 mg/kg i.v., 5 min
  Changes(%) of basal values, coronary sinus out flow: +17.0%
Coronary sinus out flow; 6.0 mg/kg i.v., 10 min
  Changes(%) of basal values, coronary sinus out flow: +18.0%
Coronary sinus out flow; 6.0 mg/kg i.v., 20 min
  Changes(%) of basal values, coronary sinus out flow: +8.5%
Coronary sinus out flow; 6.0 mg/kg i.v., 30 min
  Changes(%) of basal values, coronary sinus out flow: +8.0%
Coronary sinus out flow; 6.0 mg/kg i.v., imm.
  Changes(%) of basal values, coronary sinus out flow: +12.0%
Coronary sinus out flow; 20.0 mg/kg i.v., 1 min
  Changes(%) of basal values, coronary sinus out flow: +34.3%
Coronary sinus out flow; 20.0 mg/kg i.v., 5 min
  Changes(%) of basal values, coronary sinus out flow: +48.3%
Coronary sinus out flow; 20.0 mg/kg i.v., 10 min
  Changes(%) of basal values, coronary sinus out flow: +47.1%
Coronary sinus out flow; 20.0 mg/kg i.v., 20 min
  Changes(%) of basal values, coronary sinus out flow: +30.0%
Coronary sinus out flow; 20.0 mg/kg i.v., 30 min
  Changes(%) of basal values, coronary sinus out flow: +11.8%
Coronary sinus out flow; 20.0 mg/kg i.v., imm.
  Changes(%) of basal values, coronary sinus out flow: +18.5%
Coronary sinus out flow; i.v., anesthetized dogs
  Effects on coronary sinus out flow (in words): a marked increasing effect on coronary sinus out flow, which was proportioned to doses thereof and of long duration
[2]; 2.0 mg/kg i.v., 1 min
  Changes(%) of basal values, coronary sinus oxygen tension: +15.2%
[2]; 2.0 mg/kg i.v., 5 min
  Changes(%) of basal values, coronary sinus oxygen tension: +13.8%
[2]; 2.0 mg/kg i.v., 10 min
  Changes(%) of basal values, coronary sinus oxygen tension: +12.5%
[2]; 2.0 mg/kg i.v., 20 min
  Changes(%) of basal values, coronary sinus oxygen tension: +12.0%
[2]; 2.0 mg/kg i.v., 30 min
  Changes(%) of basal values, coronary sinus oxygen tension: +12.0%
[2]; 2.0 mg/kg i.v., imm.
  Changes(%) of basal values, coronary sinus oxygen tension: +11.2%
[2]; 6.0 mg/kg i.v., 1 min
  Changes(%) of basal values, coronary sinus oxygen tension: +27.5%
[2]; 6.0 mg/kg i.v., 5 min
  Changes(%) of basal values, coronary sinus oxygen tension: +27.0%
[2]; 6.0 mg/kg i.v., 10 min
  Changes(%) of basal values, coronary sinus oxygen tension: +30.0%
[2]; 6.0 mg/kg i.v., 20 min
  Changes(%) of basal values, coronary sinus oxygen tension: +19.6%
[2]; 6.0 mg/kg i.v., 30 min
  Changes(%) of basal values, coronary sinus oxygen tension: +13.5%
[2]; 6.0 mg/kg i.v., imm.
  Changes(%) of basal values, coronary sinus oxygen tension: +18.0%
[2]; 20.0 mg/kg i.v., 1 min
  Changes(%) of basal values, coronary sinus oxygen tension: +47.2%
[2]; 20.0 mg/kg i.v., 5 min
  Changes(%) of basal values, coronary sinus oxygen tension: +39.0%
[2]; 20.0 mg/kg i.v., 10 min
  Changes(%) of basal values, coronary sinus oxygen tension: +91.7%
[2]; 20.0 mg/kg i.v., 20 min
  Changes(%) of basal values, coronary sinus oxygen tension: +72.5%
[2]; 20.0 mg/kg i.v., 30 min
  Changes(%) of basal values, coronary sinus oxygen tension: +56.9%
[2]; 20.0 mg/kg i.v., imm.
  Changes(%) of basal values, coronary sinus oxygen tension: +31.6%
[2]; i.v., anesthetized dogs
  Effects on coronary sinus oxygen tension (in words): a significant increase in coronary sinus oxygen tension, effect of which was of long duration
Heart rate; 2.0 mg/kg i.v., 1 min
  Changes(%) of basal values, heart rate: -4.7%
Heart rate; 2.0 mg/kg i.v., 5 min
  Changes(%) of basal values, heart rate: -0.6%
Heart rate; 2.0 mg/kg i.v., 10 min
  Changes(%) of basal values, heart rate: -0.4%
Heart rate; 2.0 mg/kg i.v., 20 min
  Changes(%) of basal values, heart rate: 0%
Heart rate; 2.0 mg/kg i.v., 30 min
  Changes(%) of basal values, heart rate: 0%
Heart rate; 2.0 mg/kg i.v., imm.
  Changes(%) of basal values, heart rate: -5.2%
Heart rate; 6.0 mg/kg i.v., 1 min
  Changes(%) of basal values, heart rate: -3.9%
Heart rate; 6.0 mg/kg i.v., 5 min
  Changes(%) of basal values, heart rate: -2.3%
Heart rate; 6.0 mg/kg i.v., 10 min
  Changes(%) of basal values, heart rate: -0.9%
Heart rate; 6.0 mg/kg i.v., 20 min
  Changes(%) of basal values, heart rate: +1.0%
Heart rate; 6.0 mg/kg i.v., 30 min
  Changes(%) of basal values, heart rate: +1.0%
Heart rate; 6.0 mg/kg i.v., imm.
  Changes(%) of basal values, heart rate: -5.0%
Heart rate; 20.0 mg/kg i.v., 1 min
  Changes(%) of basal values, heart rate: +1.5%
Heart rate; 20.0 mg/kg i.v., 5 min
  Changes(%) of basal values, heart rate: 0%
Heart rate; 20.0 mg/kg i.v., 10 min
  Changes(%) of basal values, heart rate: -1.8%
Heart rate; 20.0 mg/kg i.v., 20 min
  Changes(%) of basal values, heart rate: -6.0%
Heart rate; 20.0 mg/kg i.v., 30 min
  Changes(%) of basal values, heart rate: -6.7%
Heart rate; 20.0 mg/kg i.v., imm.
  Changes(%) of basal values, heart rate: -7.0%
Heart rate; i.v., anesthetized dogs
  Effects on heart rate (in words): a slight negative chronotropic effect
